Source: PubChem BioAssay AID2335 (Sanford-Burnham Center for Chemical Genomics, 2010)
Calls of active or inactive are those of the source. How the calls were made is not given here.

System: HEK293 cytotoxicity, cell viability
Assay: HEK293 cell viability reduction – revised, SAR follow-up (AID 2335)

Structure (SMILES): Cn1nccc1C(=O)NC1CCCc2c1cnn2-c1ccccc1F (stereo unspecified)
- IC50: > 20 µM (inactive)
